In BindingDB's records for doi:10.1021/jm070849r (Pfizer, 2008):

target: T1, 3-hydroxy-3-methylglutaryl-coenzyme A reductase (Rattus norvegicus, UniProt P51639); assay: HMG-CoA Reductase Enzyme Assay and Inhibition of Cellular Cholesterol Synthesis Assay; details: pH 7.2; 37 °C
T1 sequence (P51639 whole entry): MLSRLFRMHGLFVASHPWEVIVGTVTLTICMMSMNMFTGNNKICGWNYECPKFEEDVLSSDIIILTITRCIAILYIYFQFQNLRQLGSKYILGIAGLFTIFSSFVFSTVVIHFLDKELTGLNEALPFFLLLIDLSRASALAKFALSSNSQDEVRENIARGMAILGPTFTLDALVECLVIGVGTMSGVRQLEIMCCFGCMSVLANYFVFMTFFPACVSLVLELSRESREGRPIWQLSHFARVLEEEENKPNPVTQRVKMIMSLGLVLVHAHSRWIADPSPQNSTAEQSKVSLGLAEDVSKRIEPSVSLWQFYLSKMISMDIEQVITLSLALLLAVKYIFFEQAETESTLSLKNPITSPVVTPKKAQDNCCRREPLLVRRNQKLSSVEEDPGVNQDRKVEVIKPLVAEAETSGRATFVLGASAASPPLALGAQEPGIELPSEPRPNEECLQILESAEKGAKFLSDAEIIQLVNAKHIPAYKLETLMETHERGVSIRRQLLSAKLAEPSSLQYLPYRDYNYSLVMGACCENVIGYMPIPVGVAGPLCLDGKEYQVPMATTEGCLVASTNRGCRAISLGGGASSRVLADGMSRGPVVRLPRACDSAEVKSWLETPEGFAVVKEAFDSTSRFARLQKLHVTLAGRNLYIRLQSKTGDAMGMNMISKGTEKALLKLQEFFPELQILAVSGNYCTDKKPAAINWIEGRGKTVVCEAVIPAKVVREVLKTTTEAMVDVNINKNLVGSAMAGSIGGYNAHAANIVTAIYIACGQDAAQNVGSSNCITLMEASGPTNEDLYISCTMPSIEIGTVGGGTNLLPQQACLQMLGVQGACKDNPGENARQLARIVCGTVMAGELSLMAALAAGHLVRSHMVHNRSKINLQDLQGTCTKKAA
Description: Enzyme Assay for HMG-CoA reductase was based on the conversion of isotopically labeled HMG-CoA to mevalonic acid using rat liver microsomes as enzyme source. The product, [14C]-mevalonic acid was lactonized and separated from excess substrate via an anion ion exchange resin column, and radioactivity was counted on a scintillation counter. The IC50 values were calculated with GraphPad software (Prism). The cellular assay EC50/IC50 values were obtained from inhibition of cholesterol synthesis in rat hepatocyte.

Question: `CC(C)c1nc(N(C)S(C)(=O)=O)nc(-c2ccc(F)cc2)c1/C=C/[C@@H](O)C[C@@H](O)CC(=O)O` was tested. Which IC50 did it give?
Answer: The IC50 was 300 pM.

Question: For `CC(C)c1c(C(=O)NCc2ccccc2)nn(-c2ccc(F)cc2)c1CC[C@@H](O)C[C@@H](O)CC(=O)O` [(3R,5R)-7-[3-(benzylcarbamoyl)-1-(4-fluorophenyl)-4-(propan-2-yl)-1H-pyrazol-5-yl]-3,5-dihydroxyheptanoic acid], which IC50 is on record?
Answer: The IC50 was 300 pM.

Question: With `CC[C@H](C)C(=O)O[C@H]1C[C@H](O)C=C2C=C[C@H](C)[C@H](CC[C@@H](O)C[C@@H](O)CC(=O)O)[C@H]21` [(3R,5R)-7-[(1S,2S,6S,8S,8aR)-6-hydroxy-2-methyl-8-{[(2S)-2-methylbutanoyl]oxy}-1,2,6,7,8,8a-hexahydronaphthalen-1-yl]-3,5-dihydroxyheptanoic acid] as the compound, how does the IC50 read?
Answer: Its IC50 is 17000 pM.

Question: Which IC50 does the source give for `COCc1c(C(C)C)nc(C(C)C)c(/C=C/[C@@H](O)C[C@@H](O)CC(=O)O)c1-c1ccc(F)cc1` [(3R,5S,6E)-7-[4-(4-fluorophenyl)-5-(methoxymethyl)-2,6-bis(propan-2-yl)pyridin-3-yl]-3,5-dihydroxyhept-6-enoic acid] here?
Answer: Its IC50 is 1700 pM.

Question: How did the IC50 turn out when `Cc1ccc(CNC(=O)c2nn(-c3ccc(F)cc3)c(CC[C@@H](O)C[C@@H](O)CC(=O)O)c2C(C)C)cc1` [pyrazole-based inhibitor, 35] was run?
Answer: The IC50 was 900 pM.

Question: How did the IC50 turn out when `CC(C)c1c(C(=O)N(C)Cc2cccc(F)c2F)nn(-c2ccc(F)cc2)c1CC[C@@H](O)C[C@@H](O)CC(=O)O` [sodium (3R,5R)-7-(3-{[(2,3-difluorophenyl)methyl](methyl)carbamoyl}-1-(4-fluorophenyl)-4-(propan-2-yl)-1H-pyrazol-5-yl)-3,5-dihydroxyheptanoate] was run?
Answer: Its IC50 is 600 pM.

Question: Which IC50 does the source give for `CC(C)c1c(C(=O)N(C)Cc2ccc(F)cc2F)nn(-c2ccc(F)cc2)c1CC[C@@H](O)C[C@@H](O)CC(=O)O` [sodium (3R,5R)-7-(3-{[(2,4-difluorophenyl)methyl](methyl)carbamoyl}-1-(4-fluorophenyl)-4-(propan-2-yl)-1H-pyrazol-5-yl)-3,5-dihydroxyheptanoate] here?
Answer: Its IC50 is 2100 pM.

Question: `CC(C)c1c(C(=O)NCc2cccc(C#N)c2)nn(-c2ccc(F)cc2)c1CC[C@@H](O)C[C@@H](O)CC(=O)O` [sodium (3R,5R)-7-(3-{[(3-cyanophenyl)methyl]carbamoyl}-1-(4-fluorophenyl)-4-(propan-2-yl)-1H-pyrazol-5-yl)-3,5-dihydroxyheptanoate] was tested. Which IC50 did it give?
Answer: The IC50 was 1400 pM.

Question: Which IC50 does the source give for `COCc1cccc(CNC(=O)c2nn(-c3ccc(F)cc3)c(CC[C@@H](O)C[C@@H](O)CC(=O)O)c2C(C)C)c1` [sodium (3R,5R)-7-[1-(4-fluorophenyl)-3-({[3-(methoxymethyl)phenyl]methyl}carbamoyl)-4-(propan-2-yl)-1H-pyrazol-5-yl]-3,5-dihydroxyheptanoate] here?
Answer: Its IC50 is 700 pM.

Question: Which IC50 does the source give for `CC(C)c1c(C(=O)N2CCCCC2c2ccccc2)nn(-c2ccc(F)cc2)c1CC[C@@H](O)C[C@@H](O)CC(=O)O` (stereo partly drawn) [sodium (3R,5R)-7-[1-(4-fluorophenyl)-3-[(2-phenylpiperidin-1-yl)carbonyl]-4-(propan-2-yl)-1H-pyrazol-5-yl]-3,5-dihydroxyheptanoate] here?
Answer: The IC50 was 1100 pM.

Question: For `CC(C)c1c(C(=O)N2CCCC2c2ccccc2)nn(-c2ccc(F)cc2)c1CC[C@@H](O)C[C@@H](O)CC(=O)O` (stereo partly drawn) [sodium (3R,5R)-7-[1-(4-fluorophenyl)-3-[(2-phenylpyrrolidin-1-yl)carbonyl]-4-(propan-2-yl)-1H-pyrazol-5-yl]-3,5-dihydroxyheptanoate], which IC50 is on record?
Answer: Its IC50 is 4000 pM.

Question: Which IC50 does the source give for `CC(C)c1c(C(=O)N2CCCC(c3ccccc3)C2)nn(-c2ccc(F)cc2)c1CC[C@@H](O)C[C@@H](O)CC(=O)O` (stereo partly drawn) [sodium (3R,5R)-7-[1-(4-fluorophenyl)-3-[(3-phenylpiperidin-1-yl)carbonyl]-4-(propan-2-yl)-1H-pyrazol-5-yl]-3,5-dihydroxyheptanoate] here?
Answer: Its IC50 is 400 pM.

Question: Which IC50 does the source give for `CC(C)c1c(C(=O)N(C)Cc2ccccc2F)nn(-c2ccc(F)cc2)c1CC[C@@H](O)C[C@@H](O)CC(=O)O` [sodium (3R,5R)-7-[1-(4-fluorophenyl)-3-{[(2-fluorophenyl)methyl](methyl)carbamoyl}-4-(propan-2-yl)-1H-pyrazol-5-yl]-3,5-dihydroxyheptanoate] here?
Answer: Its IC50 is 500 pM.

Question: How did the IC50 turn out when `CC(C)c1c(C(=O)N(C)Cc2cccc(F)c2)nn(-c2ccc(F)cc2)c1CC[C@@H](O)C[C@@H](O)CC(=O)O` [sodium (3R,5R)-7-[1-(4-fluorophenyl)-3-{[(3-fluorophenyl)methyl](methyl)carbamoyl}-4-(propan-2-yl)-1H-pyrazol-5-yl]-3,5-dihydroxyheptanoate] was run?
Answer: Its IC50 is 200 pM.

Question: For `CC(C)c1c(C(=O)N2CCC[C@H](c3ccccc3)C2)nn(-c2ccc(F)cc2)c1CC[C@@H](O)C[C@@H](O)CC(=O)O` [sodium (3R,5R)-7-[1-(4-fluorophenyl)-3-{[(3R)-3-phenylpiperidin-1-yl]carbonyl}-4-(propan-2-yl)-1H-pyrazol-5-yl]-3,5-dihydroxyheptanoate], which IC50 is on record?
Answer: Its IC50 is 300 pM.

Question: For `CC(C)c1c(C(=O)N(C)Cc2ccc(F)cc2)nn(-c2ccc(F)cc2)c1CC[C@@H](O)C[C@@H](O)CC(=O)O` [sodium (3R,5R)-7-[1-(4-fluorophenyl)-3-{[(4-fluorophenyl)methyl](methyl)carbamoyl}-4-(propan-2-yl)-1H-pyrazol-5-yl]-3,5-dihydroxyheptanoate], which IC50 is on record?
Answer: Its IC50 is 500 pM.

Question: How did the IC50 turn out when `CC(C)c1c(C(=O)NCc2ccc(F)cc2)nn(-c2ccc(F)cc2)c1CC[C@@H](O)C[C@@H](O)CC(=O)O` [sodium (3R,5R)-7-[1-(4-fluorophenyl)-3-{[(4-fluorophenyl)methyl]carbamoyl}-4-(propan-2-yl)-1H-pyrazol-5-yl]-3,5-dihydroxyheptanoate] was run?
Answer: The IC50 was 700 pM.

Question: Which IC50 does the source give for `COc1ccc(CN(C)C(=O)c2nn(-c3ccc(F)cc3)c(CC[C@@H](O)C[C@@H](O)CC(=O)O)c2C(C)C)cc1` [sodium (3R,5R)-7-[1-(4-fluorophenyl)-3-{[(4-methoxyphenyl)methyl](methyl)carbamoyl}-4-(propan-2-yl)-1H-pyrazol-5-yl]-3,5-dihydroxyheptanoate] here?
Answer: Its IC50 is 300 pM.

Question: With `COc1ccc(CNC(=O)c2nn(-c3ccc(F)cc3)c(CC[C@@H](O)C[C@@H](O)CC(=O)O)c2C(C)C)cc1` [sodium (3R,5R)-7-[1-(4-fluorophenyl)-3-{[(4-methoxyphenyl)methyl]carbamoyl}-4-(propan-2-yl)-1H-pyrazol-5-yl]-3,5-dihydroxyheptanoate] as the compound, how does the IC50 read?
Answer: The IC50 was 400 pM.

Question: For `Cc1ccccc1CN(C)C(=O)c1nn(-c2ccc(F)cc2)c(CC[C@@H](O)C[C@@H](O)CC(=O)O)c1C(C)C` [sodium (3R,5R)-7-[1-(4-fluorophenyl)-3-{methyl[(2-methylphenyl)methyl]carbamoyl}-4-(propan-2-yl)-1H-pyrazol-5-yl]-3,5-dihydroxyheptanoate], which IC50 is on record?
Answer: Its IC50 is 2100 pM.

Question: How did the IC50 turn out when `Cc1cccc(CN(C)C(=O)c2nn(-c3ccc(F)cc3)c(CC[C@@H](O)C[C@@H](O)CC(=O)O)c2C(C)C)c1` [sodium (3R,5R)-7-[1-(4-fluorophenyl)-3-{methyl[(3-methylphenyl)methyl]carbamoyl}-4-(propan-2-yl)-1H-pyrazol-5-yl]-3,5-dihydroxyheptanoate] was run?
Answer: The IC50 was 600 pM.

Question: `Cc1ccc(CN(C)C(=O)c2nn(-c3ccc(F)cc3)c(CC[C@@H](O)C[C@@H](O)CC(=O)O)c2C(C)C)cc1` [sodium (3R,5R)-7-[1-(4-fluorophenyl)-3-{methyl[(4-methylphenyl)methyl]carbamoyl}-4-(propan-2-yl)-1H-pyrazol-5-yl]-3,5-dihydroxyheptanoate] was tested. Which IC50 did it give?
Answer: Its IC50 is 1800 pM.

Question: How did the IC50 turn out when `CC(C)c1c(C(=O)NCc2ccc(C(=O)N(C)C)cc2)nn(-c2ccc(F)cc2)c1CC[C@@H](O)C[C@@H](O)CC(=O)O` [sodium (3R,5R)-7-[3-({[4-(dimethylcarbamoyl)phenyl]methyl}carbamoyl)-1-(4-fluorophenyl)-4-(propan-2-yl)-1H-pyrazol-5-yl]-3,5-dihydroxyheptanoate] was run?
Answer: Its IC50 is 23000 pM.

Question: How did the IC50 turn out when `CCN(Cc1ccccc1)C(=O)c1nn(-c2ccc(F)cc2)c(CC[C@@H](O)C[C@@H](O)CC(=O)O)c1C(C)C` [sodium (3R,5R)-7-{3-[benzyl(ethyl)carbamoyl]-1-(4-fluorophenyl)-4-(propan-2-yl)-1H-pyrazol-5-yl}-3,5-dihydroxyheptanoate] was run?
Answer: Its IC50 is 5500 pM.

Question: How did the IC50 turn out when `CC(C)c1c(C(=O)N(C)Cc2ccccc2)nn(-c2ccc(F)cc2)c1CC[C@@H](O)C[C@@H](O)CC(=O)O` [sodium (3R,5R)-7-{3-[benzyl(methyl)carbamoyl]-1-(4-fluorophenyl)-4-(propan-2-yl)-1H-pyrazol-5-yl}-3,5-dihydroxyheptanoate] was run?
Answer: The IC50 was 200 pM.

Question: With `CC(C)c1c(C(=O)N(Cc2ccccc2)C(C)C)nn(-c2ccc(F)cc2)c1CC[C@@H](O)C[C@@H](O)CC(=O)O` [sodium (3R,5R)-7-{3-[benzyl(propan-2-yl)carbamoyl]-1-(4-fluorophenyl)-4-(propan-2-yl)-1H-pyrazol-5-yl}-3,5-dihydroxyheptanoate] as the compound, how does the IC50 read?
Answer: The IC50 was 10000 pM.

same assay, conditions: pH 7.2; 37 °C; read-out: IC50

Question: With `Cc1ccccc1CN(C)C(=O)c1nn(-c2ccc(F)cc2)c(CC[C@@H](O)C[C@@H](O)CC(=O)O)c1C(C)C` [sodium (3R,5R)-7-[1-(4-fluorophenyl)-3-{methyl[(2-methylphenyl)methyl]carbamoyl}-4-(propan-2-yl)-1H-pyrazol-5-yl]-3,5-dihydroxyheptanoate] as the compound, how does the IC50 read?
Answer: The IC50 was 16000 pM.
